The subject of test [1] is ENR+CD organoids (ISC to Paneth cell differentiation). Nature of the test: Primary screen: basal (non-stimulated) lysozyme secretion LYZ.NS, 2.5-D 384-well ENR+CD organoid differentiation. The note with it: primary screen; for Z.LYZ.NS: standard z score. The format is cell-based, mouse. An excerpt: (§1) High-throughput screening.
The subject of the next test is ENR+CD organoids. In words: Primary screen: ATP (CellTiter-Glo 3D, CTG) cell number/viability, 2.5-D 384-well ENR+CD organoids.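 As to all read-outs here: compounds given at plating and again on day 3 over a 6-day differentiation from ENR+CV stem-cell-enriched precursors, ATP measured on day 6, plate median as control.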 The settings on record: primary screen; for Z.CTG: standard z score. (ATP-based viability assays read luminescence as a measure of living cells.)
In test [2] the test system is ENR+CD organoids (ISC to Paneth cell differentiation). In words: Primary screen: CCh-stimulated lysozyme secretion LYZ.S, 2.5-D 384-well ENR+CD organoid differentiation. Format: cell-based, mouse. The note with it: primary screen.
Excerpt: as §1

Structures are written as SMILES.

Turning to `CC(C)c1c(C(=O)Nc2ccccc2)c(-c2ccccc2)c(-c2ccc(F)cc2)n1CC[C@@H](O)C[C@@H](O)CC(=O)[O-].CC(C)c1c(C(=O)Nc2ccccc2)c(-c2ccccc2)c(-c2ccc(F)cc2)n1CC[C@@H](O)C[C@@H](O)CC(=O)[O-].[Ca+2]` [Atorvastatin Calcium], the Dose.FC.LYZ.NS in test [1] (dose 0.08 uM) is given as −0.009 log2 fold change; in test [1] (dose 0.40 uM), 0.007 log2 fold change; in test [1] (dose 2.00 uM) it was −0.247 log2 fold change; in test [1] (dose 10.00 uM), −0.235 log2 fold change. The “Z.LYZ.NS (standard z score)” value in test [1] (dose 0.08 uM) was −0.077; in test [1] (dose 0.40 uM), 0.062; in test [1] (dose 2.00 uM), −2.148; in test [1] (dose 10.00 uM), −2.045. In addition, the Dose.FC.CTG was −0.129 log2 fold change with ENR+CD organoids (dose 0.08 uM), −0.348 log2 fold change in the test on ENR+CD organoids (dose 0.40 uM), −1.085 log2 fold change with ENR+CD organoids (dose 2.00 uM) and −1.583 log2 fold change in the test on ENR+CD organoids (dose 10.00 uM). Moreover, the “Z.CTG (standard z score)” value is listed as −0.309 in the test on ENR+CD organoids (dose 0.08 uM), −0.831 in the test with ENR+CD organoids (dose 0.40 uM), −2.591 in the test with ENR+CD organoids (dose 2.00 uM) and −3.780 with ENR+CD organoids (dose 10.00 uM). The Dose.FC.LYZ.S in test [2] (dose 0.08 uM) is 0.022 log2 fold change; in test [2] (dose 0.40 uM) it was −0.062 log2 fold change; in test [2] (dose 2.00 uM), −0.354 log2 fold change; in test [2] (dose 10.00 uM), −0.305 log2 fold change.

In the case of `C[C@@H]1C(=O)O[C@H]2C[C@@]34[C@H]5C[C@@H](C(C)(C)C)[C@]36[C@@H](OC(=O)[C@@H]6O)O[C@@]4(C(=O)O5)[C@]21O` [Ginkgolide A], the Dose.FC.LYZ.NS in test [1] (dose 0.08 uM) is recorded as 0.045 log2 fold change; in test [1] (dose 0.40 uM) it was 0.025 log2 fold change; in test [1] (dose 2.00 uM), 0.030 log2 fold change; in test [1] (dose 10.00 uM), 0.052 log2 fold change. The Z.LYZ.NS in test [1] (dose 0.08 uM) is listed as 0.395; in test [1] (dose 0.40 uM), 0.222; in test [1] (dose 2.00 uM), 0.258; in test [1] (dose 10.00 uM), 0.450. In addition, the Dose.FC.CTG was 0.005 log2 fold change in the test with ENR+CD organoids (dose 0.08 uM), −0.017 log2 fold change in the test on ENR+CD organoids (dose 0.40 uM), 0.040 log2 fold change in the test with ENR+CD organoids (dose 2.00 uM) and −0.012 log2 fold change in the test with ENR+CD organoids (dose 10.00 uM). In addition, the Z.CTG in the test on ENR+CD organoids (dose 0.08 uM) is 0.011; with ENR+CD organoids (dose 0.40 uM), −0.040; in the test on ENR+CD organoids (dose 2.00 uM), 0.095; in the test with ENR+CD organoids (dose 10.00 uM), −0.028. Also, the Dose.FC.LYZ.S in test [2] (dose 0.08 uM) is 0.124 log2 fold change; in test [2] (dose 0.40 uM), 0.161 log2 fold change; in test [2] (dose 2.00 uM), 0.002 log2 fold change; in test [2] (dose 10.00 uM) it was −0.028 log2 fold change.

Turning to `NC(=O)Nc1sc(-c2ccc(F)cc2)cc1C(N)=O` [TPCA-1], the Dose.FC.LYZ.NS in test [1] (dose 0.08 uM) is on record as 0.072 log2 fold change; in test [1] (dose 0.40 uM) it was −0.047 log2 fold change; in test [1] (dose 2.00 uM), −0.059 log2 fold change; in test [1] (dose 10.00 uM), −0.197 log2 fold change. The “Z.LYZ.NS (standard z score)” value in test [1] (dose 0.08 uM) is 0.627; in test [1] (dose 0.40 uM), −0.413; in test [1] (dose 2.00 uM), −0.514; in test [1] (dose 10.00 uM) it was −1.711. Also, the Dose.FC.CTG is −0.061 log2 fold change in the test with ENR+CD organoids (dose 0.08 uM), −0.004 log2 fold change in the test on ENR+CD organoids (dose 0.40 uM), −0.005 log2 fold change in the test on ENR+CD organoids (dose 2.00 uM) and −0.531 log2 fold change in the test on ENR+CD organoids (dose 10.00 uM). Further, the “Z.CTG (standard z score)” value in the test on ENR+CD organoids (dose 0.08 uM) is reported as −0.146; in the test with ENR+CD organoids (dose 0.40 uM) it was −0.010; in the test on ENR+CD organoids (dose 2.00 uM), −0.012; in the test with ENR+CD organoids (dose 10.00 uM), −1.269. The Dose.FC.LYZ.S was 0.041 log2 fold change in test [2] (dose 0.08 uM), −0.029 log2 fold change in test [2] (dose 0.40 uM), −0.054 log2 fold change in test [2] (dose 2.00 uM) and −0.294 log2 fold change in test [2] (dose 10.00 uM).

Consider `CC(C)CCNC(=O)[C@H](CC(C)C)NC(=O)[C@H]1O[C@@H]1C(=O)O` [Loxistatin Acid (E-64C)], for which the “Dose.FC.LYZ.NS (log2 fold change)” value is 0.147 in test [1] (dose 0.08 uM), 0.061 in test [1] (dose 0.40 uM), 0.055 in test [1] (dose 2.00 uM) and 0.004 in test [1] (dose 10.00 uM). The “Z.LYZ.NS (standard z score)” value in test [1] (dose 0.08 uM) was determined as 1.283; in test [1] (dose 0.40 uM), 0.534; in test [1] (dose 2.00 uM) it was 0.482; in test [1] (dose 10.00 uM) it was 0.031. Moreover, the “Dose.FC.CTG (log2 fold change)” value turned out to be 0.086 in the test with ENR+CD organoids (dose 0.08 uM), 0.156 with ENR+CD organoids (dose 0.40 uM), 0.080 with ENR+CD organoids (dose 2.00 uM) and 0.094 in the test with ENR+CD organoids (dose 10.00 uM). Moreover, the “Z.CTG (standard z score)” value with ENR+CD organoids (dose 0.08 uM) is reported as 0.206; in the test with ENR+CD organoids (dose 0.40 uM), 0.373; with ENR+CD organoids (dose 2.00 uM) it was 0.191; in the test on ENR+CD organoids (dose 10.00 uM) it was 0.224. The “Dose.FC.LYZ.S (log2 fold change)” value was determined as 0.125 in test [2] (dose 0.08 uM), 0.105 in test [2] (dose 0.40 uM), 0.037 in test [2] (dose 2.00 uM) and 0.021 in test [2] (dose 10.00 uM).

The record behind these values is patent US20220323406A1, “METHODS AND COMPOSITIONS FOR DIFFERENTIATING STEM CELLS” (Massachusetts Institute of Technology, priority 2019, published 2022).
